Laboratory results reported in patent publication US6459001B1 (Aventis Pharma S.A., priority 1997, dated 2002).

Legend:
[1] = system: bone resorption (skullcaps of new-born mice); test: Test of mouse calvarium: bone resorption by release of 45Ca from skullcaps of new-born mice, ex-vivo; details: Mus musculus, inhibition of bone resorption (45Ca release) in half-calvaria, 48 hours contact, read-out: Mouse cavarium % inhibition at 10 μM
Excerpt: 2—Test of Mouse Calvarium
Injection of a tracer dose of ^45Ca (CaCl2) to gestating female mice in order to study bone resorption by measuring the release of ^45Ca from the skullcaps of new-born mice.
Determination of the activity of a molecule on bone resorption, ex-vivo study.
Vehicle: DMSO, H2O/BSA (0.1%)
Dose: Variable ([…] in screening).
Echistatin (ref. H-9010-BACHEM)
^45Ca in the form of an aqueous solution of CaCl2—ref. CES3 AMERSHAM or NEZ-013 NEN.
Vehicle: Physiological serum
Dose: 25 μCi/mouse/0.4 ml
CMRL 1066 with phenol red (ref. 041-01535 M/GIBCO) supplemented by 0.1% BSA and penicillin/streptomycin.
1) Injection of ^45Ca to Gestating Mice (OF1, Strain: Swiss)
a) Preparation of the Labelled Solution:
190 μl of the mother solution of calcium at 2 mci/ml is added to 6 ml of physiological serum.
On the 17th day of gestation the mice receive 400 μl of this solution by intravenous route, that is 25 μCi/mouse.
2) Removal of the Tissue (Skullcap (Calvarium))
Six days after their birth the new-born mice are decapitated, then the head is recovered, and the skin is incised from the nape to the front. The skullcap is removed by cutting it out with scissors, and using a punch two exactly identical half-calvaria (one on the left and one on the right) are cut from the parietal bones. One will serve as the control, the other will be used to test the product to be studied.
Each half calvarium is placed in a well of a 24-well plate, containing 1 ml of medium, on a 100 μm polyethylene and nylex support, in order to avoid all contact with the bottom of the well.
After 24 hours, the polyethylene supports carrying the calvaria are transferred into new 24-well plates containing 1 ml of fresh medium and the products to be tested or their solvents. 200 μl of medium from the first plates is removed from each well and a first count of the radioactivity is carried out (value A).
This change of medium allows all the mechanical stress associated with the removal to be eliminated.
48 hours after putting the tissues in contact with the studied products, 200 μl of medium is removed from each well and counted (value B), so as to determine the quantity of ^45Ca released from the medium during the so-called resorption phase.
The calvarium is then completely demineralized in 1 ml of 5% trichloracetic acid and after digestion, 200 μl is also removed and counted so as to determine the quantity of calcium remaining in the bone (value C). Expression of the results
A % of bone resorption is calculated for each half-calvarium (each well) in the following manner:
% bone resorption=dpm B/dpm (A+B+C)×100
The sum of dpm A+B+C represents the quantity of ^45Ca incorporated in each bone part on the day of removal.
In order to measure the effect of a product, the ratio of the percentage of bone resorption of the treated well and of the corresponding control well is calculated for each point. The value found called the resorption index is comprised between 0 and 1 if the product inhibits bone resorption and is >1 if the product potentializes it. The average of the 6 indices (since there are 6 points/group) of each product is then calculated which gives one index/product. If this index is subtracted from the value 1, the inhibitory power of the product is obtained, which can be expressed as a percentage.
Furthermore a statistical test (Student T-test) is carried out by comparing point/point the individual resorption indices.

human αvβ3 receptor = human αvβ3 receptor (Homo sapiens, UniProt P05106+P06756); test: Displacement of the binding Vitronectin/Vitronectin receptor (αvβ3), competition test; details: human vitronectin coated plates, 3 hours at ambient temperature, read-out: Competition test Vn/VR (αvβ3) binding IC50 en
Experimental: 1—Study of the Products of the Invention on the Displacement of the Binding: Vitronectin/Vitronectin Receptor (αvβ3) […]
MaxiSorp 96-well plates are coated overnight at 4° C., with 100 μl of human Vitronectin (cf Yatohgo et al. Cell., Structure and fraction 13: 281-292 (1988)) at 2 μg/ml, (Dilution in coating buffer).
The next day, the wells are emptied and the ligands (Vitronectin) are then fixed (see fixing buffer) for one hour at ambient temperature under gentle agitation.
The wells are washed six times (see washing buffer), then the following are added to each well and in this order:
40 μl of incubation buffer, 10 μl of the dilution of the product to be tested, (the products are diluted in a 50/50 mixture of DMSO-H2O) 50 μl of human αvβ3 receptor (cf Pytela et al. Methods Enzymol (1987) 144:475) (dilution in incubation buffer, to be adapted according to the receptor batch and according to the ligand).
The ligand, the human αvβ3 receptor and the products to be studied are incubated for 3 hours at ambient temperature under gentle agitation.
The wells are again washed six times, then incubated for 2 hours at ambient temperature under gentle agitation, in the presence of 100 μl of anti-receptor, 4B12-HRP antibody coupled to a peroxidase (the 4B12-HRP antibody is diluted in an incubation buffer. The dilution is to be adapted according to the receptor batch).
This kit contains a bottle A of substrate (3,3′,5,5′-tetramethylbenzidine at 0.4 g/l) and a bottle B (H2O2 at 0.02% in a citrate/citric acid buffer). Extemporaneously, a volume of A is mixed with a volume of B, then the reaction mixture is distributed at a rate of 100 μl/well. The enzymatic reaction develops over […] for Vitronectin/αvβ3, then its development is stopped by the addition of 100 μl of 1M phosphoric acid. The optical density is measured at 450 nm. […]
coating buffer: Carbonate 0.05 M, NaOH pH 9.6 fixing buffer: PBS containing 0.5% BSA (pH 7.4) washing buffer: PBS containing 0.05% Tween 20 (pH 7.4)
Expression of the Results:
The following curve is traced: the percentage of binding of the human vitronectin as a function of the logarithm of the concentration of each product tested.
For each product the IC50 is determined according to the following formula:
BO=Maximum binding in the absence of any product
Bmin=Minimum binding in the presence of the highest concentration of product.

## COc1c(OCCC(NC(=O)OCc2ccccc2)C(=O)O)cc2c(c1OC)C1=C(CCC1)C(=NNC1=NCCCCN1)CC2 (racemic) [EX. 31, O-[9,10-Dimethoxy1,2,3,4,5,6-hexahydro4-[(4,5,6,7-tetrahydro1H-1,3-diazepin-2-yl)hydrazono]8-benz(e)azulenyl]N-[(phenylmethoxy)carbonyl]DL-homoserine]
[1]
  inhibition at 10 µM: 20%
Human αvβ3 receptor
  IC50: 55 nM
